Laboratory results reported in patent US20030143757A1, “Methods for identifying drug cores” (priority 1997, published 2003).

Target: p38 MAP kinase (Homo sapiens, UniProt Q16539)
Conditions: 1 mM each drug core, 0.2 mM p38 MAP kinase, 5° C., pD* 8.4, relaxation filter
Method: All the spectra were acquired at 5° C. using a Bruker DMX 500 MHz NMR spectrometer. NOESY spectra were collected using 16 transients with 2048 points in ω2 and 400 points in ω1 and a mixing time of 400 ms for the drug core mixture in the absence of target and 100 ms for the drug core mixture in the presence of p38. A spin echo with an echo delay of 5 ms was used as a relaxation filter before the t1 evolution period in all experiments. Samples contained 1 mM of each drug core, 0.2 mM p38 MAP kinase, 25 mM deutero-Tris, 10% (v/v) deutero-glycerol, 20 mM deutero-dithiothreitol at pD*=8.4.

p38 MAP kinase, sequence (Q16539 whole entry): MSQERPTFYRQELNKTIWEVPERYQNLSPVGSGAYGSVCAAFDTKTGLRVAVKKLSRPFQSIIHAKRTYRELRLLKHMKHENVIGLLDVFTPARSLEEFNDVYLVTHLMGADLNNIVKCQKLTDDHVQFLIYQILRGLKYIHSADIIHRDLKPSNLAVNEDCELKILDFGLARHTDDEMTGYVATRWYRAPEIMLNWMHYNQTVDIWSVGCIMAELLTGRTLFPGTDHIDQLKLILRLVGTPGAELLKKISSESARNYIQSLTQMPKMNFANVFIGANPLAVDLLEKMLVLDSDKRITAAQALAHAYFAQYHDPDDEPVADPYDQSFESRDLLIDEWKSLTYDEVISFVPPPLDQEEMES

- binding to p38 MAP kinase by line broadening and peak height attenuation in 1D NMR: does not
SMILES: O=C(O)c1cccnc1 [nicotinic acid]
